Experimental data from US6905834B1, “Bioluminescent bioreporter integrated circuit detection methods” (UT-Battelle, LLC, priority 1997, dated 2005).

How the values were obtained:
[1] = tested on: S. cerevisiae HER; assay: Sol-gel encapsulated yeast β-galactosidase bioreporter for estrogenic activity; format: cell-based, Saccharomyces cerevisiae; conditions: over a seven day period; comparable to non-encapsulated positive control
Description: Sol-gel encapsulation studies substituting another yeast strain, S. cerevisiae HER, a β-galactosidase bioreporter for estrogenic activity were conducted. Strain HER was successfully incorporated into the sol-gel matrix while retaining responsiveness to the estrogen inducer β-estradiol.

[2] = tested on: N. europaea Km^r hao-lux; assay: Bioluminescence response of N. europaea hao-lux fusion to NH4+; format: cell-based, Nitrosomonas europaea
Description: The NH4^+ detection limits were determined to be 20 μM at 30 min of exposure and 10 μM at 60 min or 90 min of exposure (threefold increase over background bioluminescence).

| SMILES | estrogenic response of sol-gel encapsulated yeast cells (in words) [1] | NH4^+ detection limit (threefold increase over background bioluminescence) ([2]; 30 min of exposure) [µM] | NH4^+ detection limit (threefold increase over background bioluminescence) ([2]; 60 min or 90 min of exposure) [µM] |
| --- | --- | --- | --- |
| C[C@]12CC[C@@H]3c4ccc(O)cc4CC[C@H]3[C@@H]1CC[C@@H]2O [β-estradiol] | an estrogenic response was initiated |  |  |
| N.N.O=S(=O)(O)O [NH4^+, (NH4)2SO4] |  | 20 | 10 |
